Biological target: T1, volume-regulated anion channels (VRACs); LRRC8A-containing hexamer (Homo sapiens, UniProt Q8IWT6)
T1 construct: native channel in intact MCF10A cells; LRRC8 heterohexamer of undefined subunit composition, LRRC8A essential; A, C, D prominently expressed, B and E minimal
T1 sequence (Q8IWT6 1-810): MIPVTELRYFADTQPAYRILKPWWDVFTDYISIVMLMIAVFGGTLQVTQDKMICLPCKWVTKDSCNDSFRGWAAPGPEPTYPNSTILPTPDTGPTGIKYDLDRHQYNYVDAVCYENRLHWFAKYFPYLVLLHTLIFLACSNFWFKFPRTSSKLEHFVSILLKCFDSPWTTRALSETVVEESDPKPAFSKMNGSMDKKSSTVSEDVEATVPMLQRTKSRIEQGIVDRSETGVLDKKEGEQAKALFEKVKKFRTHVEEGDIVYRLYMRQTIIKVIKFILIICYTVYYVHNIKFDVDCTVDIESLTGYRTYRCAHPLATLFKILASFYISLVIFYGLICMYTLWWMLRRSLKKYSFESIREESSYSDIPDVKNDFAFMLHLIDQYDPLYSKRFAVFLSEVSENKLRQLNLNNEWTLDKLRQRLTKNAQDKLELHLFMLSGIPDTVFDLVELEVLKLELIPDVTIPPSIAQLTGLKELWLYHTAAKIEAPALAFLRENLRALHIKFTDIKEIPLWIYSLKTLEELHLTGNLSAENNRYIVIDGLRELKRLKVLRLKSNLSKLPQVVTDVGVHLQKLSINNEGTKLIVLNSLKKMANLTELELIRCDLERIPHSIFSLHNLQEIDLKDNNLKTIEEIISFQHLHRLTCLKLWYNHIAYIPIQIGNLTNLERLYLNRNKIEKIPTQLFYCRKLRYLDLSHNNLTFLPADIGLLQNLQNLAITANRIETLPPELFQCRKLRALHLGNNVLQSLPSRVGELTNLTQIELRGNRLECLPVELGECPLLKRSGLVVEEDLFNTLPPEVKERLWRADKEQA
T1 sequence (Q8TDW0 1-803 partner): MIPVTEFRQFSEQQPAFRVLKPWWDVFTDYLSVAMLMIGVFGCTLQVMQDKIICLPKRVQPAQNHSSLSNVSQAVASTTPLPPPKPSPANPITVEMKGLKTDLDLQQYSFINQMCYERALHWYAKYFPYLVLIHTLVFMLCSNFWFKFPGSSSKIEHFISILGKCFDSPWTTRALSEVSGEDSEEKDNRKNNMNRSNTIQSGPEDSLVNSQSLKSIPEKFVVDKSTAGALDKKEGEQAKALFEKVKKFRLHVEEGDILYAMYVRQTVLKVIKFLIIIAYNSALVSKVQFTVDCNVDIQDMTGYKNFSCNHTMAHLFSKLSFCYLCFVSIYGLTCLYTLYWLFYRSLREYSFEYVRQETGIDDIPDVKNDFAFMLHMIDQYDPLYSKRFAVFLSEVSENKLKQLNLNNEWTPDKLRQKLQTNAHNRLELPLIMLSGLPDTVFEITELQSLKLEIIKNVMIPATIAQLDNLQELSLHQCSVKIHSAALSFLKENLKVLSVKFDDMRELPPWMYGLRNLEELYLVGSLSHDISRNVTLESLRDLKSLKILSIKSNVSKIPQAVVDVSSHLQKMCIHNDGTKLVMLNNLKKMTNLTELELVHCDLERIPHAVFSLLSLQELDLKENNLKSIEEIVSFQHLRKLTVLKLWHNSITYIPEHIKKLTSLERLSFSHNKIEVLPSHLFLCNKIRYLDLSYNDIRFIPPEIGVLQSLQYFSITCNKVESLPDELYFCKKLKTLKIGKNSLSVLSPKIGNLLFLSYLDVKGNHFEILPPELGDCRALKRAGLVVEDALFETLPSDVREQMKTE
T1 sequence (Q7L1W4 1-858 partner): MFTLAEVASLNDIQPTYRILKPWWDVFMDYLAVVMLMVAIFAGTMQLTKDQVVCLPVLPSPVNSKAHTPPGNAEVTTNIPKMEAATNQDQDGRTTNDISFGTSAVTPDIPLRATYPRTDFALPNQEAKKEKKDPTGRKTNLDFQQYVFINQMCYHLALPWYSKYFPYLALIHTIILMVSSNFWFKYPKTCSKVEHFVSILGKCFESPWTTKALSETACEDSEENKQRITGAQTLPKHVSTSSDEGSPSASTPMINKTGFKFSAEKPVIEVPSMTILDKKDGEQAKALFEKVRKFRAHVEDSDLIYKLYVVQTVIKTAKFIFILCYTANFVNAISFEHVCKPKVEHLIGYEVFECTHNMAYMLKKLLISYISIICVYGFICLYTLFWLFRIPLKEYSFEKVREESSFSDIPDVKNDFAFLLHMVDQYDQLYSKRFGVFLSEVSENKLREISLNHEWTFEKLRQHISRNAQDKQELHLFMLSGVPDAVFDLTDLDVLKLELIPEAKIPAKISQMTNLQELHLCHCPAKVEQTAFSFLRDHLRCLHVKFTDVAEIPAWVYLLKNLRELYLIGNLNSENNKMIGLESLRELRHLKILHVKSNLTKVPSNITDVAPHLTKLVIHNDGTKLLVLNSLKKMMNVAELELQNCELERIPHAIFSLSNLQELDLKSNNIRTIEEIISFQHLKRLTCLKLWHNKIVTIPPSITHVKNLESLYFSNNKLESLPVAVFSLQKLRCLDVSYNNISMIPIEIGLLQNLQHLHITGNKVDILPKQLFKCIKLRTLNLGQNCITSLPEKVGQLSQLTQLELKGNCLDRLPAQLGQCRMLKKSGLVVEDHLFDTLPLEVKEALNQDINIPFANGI
Experiment: luciferin-luciferase imaging of hypotonic diffuse ATP release in MCF10A cells
Type: cell-based
Details: 50% hypotonic stress; pH 7.4, 30 °C; decay of ATP signal after DCPIB, exponential fit; indirect read-out (ATP release)

**Q.** CCCCC1(C2CCCC2)Cc2cc(OCCCC(=O)O)c(Cl)c(Cl)c2C1=O (stereo not shown) [DCPIB, 4-[(2-Butyl-6,7-dichloro-2-cyclopentyl-2,3-dihydro-1-oxo-1H-inden-5-yl)oxy] butanoic acid] was tested. Which IC50 did it give?
**A.** Its IC50 is 38.5 µM.

Reference: article PMC11774906, “Volume-regulated anion channels conduct ATP in undifferentiated mammary cells and promote tumorigenesis in xenograft nude mouse” (Frontiers in Cell and Developmental Biology, 2025)
